Literature values in patent publication US20250360221A1 (priority 2025, published 2025).
“Also recorded” adds a separate entry of the source. Counter-ions that a name gives are not always drawn. Like-named read-outs stand apart in the source and are kept apart here.

Legend:
μ-opioid receptor = μ-opioid receptor (Homo sapiens, UniProt P35372)
[1] = animals, prior art
[2] = across the human BBB; transporter type named
[3] = humans
proteolytic enzymes = details: compared to other opioid peptides
[4] = tested on: patients with severe cancer pain
[5] = tested on: patients suffering from cancer pain; details: continuous intrathecal infusion for two weeks
humans = details: epidural injections
[6] = intrathecal, 3 mg, patients with severe cancer pain

Sequence of μ-opioid receptor (P35372 whole entry, species assumed): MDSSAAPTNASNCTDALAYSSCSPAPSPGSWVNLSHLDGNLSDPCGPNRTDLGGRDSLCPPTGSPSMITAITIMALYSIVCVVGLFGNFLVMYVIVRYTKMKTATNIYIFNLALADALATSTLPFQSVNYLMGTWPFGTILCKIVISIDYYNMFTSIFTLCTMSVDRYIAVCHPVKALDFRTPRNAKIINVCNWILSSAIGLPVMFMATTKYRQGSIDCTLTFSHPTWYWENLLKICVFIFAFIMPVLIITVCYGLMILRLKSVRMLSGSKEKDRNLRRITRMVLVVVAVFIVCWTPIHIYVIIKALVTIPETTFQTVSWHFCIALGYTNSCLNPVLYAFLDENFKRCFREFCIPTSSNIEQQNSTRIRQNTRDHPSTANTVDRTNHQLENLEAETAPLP

## β-endorphin (1-27) (YGGFMTSEKSQTPLVTLFKNAIIKNAY; Beta-endorphin; UniProt P01189 237-263, looked up, fragment) [shorter fragment of β-endorphin]
μ-opioid receptor
  potency compared to β-endorphin (1-31): less potent

## O=C1O[C@H]([C@@H](O)CO)C(=O)C1=O [Dehydroascorbic acid]
[1]
  crossing of the BBB: crosses via GLUT1 transporter the BBB
[2]
  Active Transport: + GLUT

## γ endorphin: γ endorphin, stated not analgesic (YGGFMTSEKSQTPLVTL; Beta-endorphin gamma-endorphin; UniProt P01189 237-253, looked up, fragment)
μ-opioid receptor
  analgesic activity: not analgesic

## α endorphin
μ-opioid receptor
  analgesic activity: not analgesic

## CC(=O)Oc1ccc2c3c1O[C@H]1[C@@H](OC(C)=O)C=C[C@H]4[C@@H](C2)N(C)CC[C@@]341 [Diacetylmorphine]
[3]; prior art
  crossing of the BBB: crosses the BBB

## CC(C)CCC[C@@H](C)[C@H]1CC[C@H]2[C@@H]3CC=C4C[C@@H](O)CC[C@]4(C)[C@H]3CC[C@]12C [Cholesterol]
[2]
  Active Transport: + lipid

## Cc1cc(OCC(=O)O)cc(C)c1Cc1ccc(O)c(C(C)C)c1 [sobetirome]
[3]; prior art
  crossing of the BBB: crosses the BBB

## CC/C=C\C/C=C\C/C=C\C/C=C\C/C=C\C/C=C\CCC(=O)O [DHA, docosahexaenoic acid]
[2]
  Active Transport: + protein

## CCOC(=O)CC(O)(CC(=O)OCC)C(=O)OCC [triethyl citrate]
[3]; prior art
  crossing of the BBB: probably crosses the BBB

## CC/C=C\C/C=C\C/C=C\CCCCCCCC(=O)O [Linolenic acid]
[2]
  Active Transport: + lipid

## O=C1NC(c2ccccc2)(c2ccccc2)C(=O)N1COP(=O)(O)O [fosphenytoin]
[3]; prior art
  crossing of the BBB: crosses the BBB

## β-endorphin
Proteolytic enzymes
  resistance to degradation by proteolytic enzymes / peptidases: resistant to degradation by proteolytic enzymes; also recorded: quite stable and resistant to many peptidases
[4]; intrathecal or epidural administration to humans
  respiratory depression: no evidence of respiratory depression
[4]; [6]
  adverse effects: without major adverse effects
  duration of analgesia: approximately 33.4 hours
[5]
  analgesia: profound analgesia
  tolerance or respiratory depression: did not demonstrate tolerance; also recorded: no evidence of tolerance or respiratory depression
animals; intracerebroventricular administration
  respiratory depression: reports of respiratory depression
animals; intracerebroventricular injection
  tolerance: tolerance develops
[3]; administered intravenously
  crossing of the BBB: does not cross the BBB
humans
  duration of analgesia: 19.5 h
  side effects: without major side effects
